Results from ChEMBL document CHEMBL4507324 (2021).

Legend:
Conditions in all cases: Compound concentration 100.0 nM
[1] = target: Serine/threonine-protein kinase 36 (Homo sapiens) (UniProt Q9NRP7)
[2] = target: Cyclin-dependent kinase 3 (Homo sapiens) (UniProt Q00526)
[3] = target: Misshapen-like kinase 1 (Homo sapiens) (UniProt Q8N4C8)
[4] = target: Mitogen-activated protein kinase kinase kinase 1 (Homo sapiens) (UniProt Q13233)
[5] = test system: Tyrosine-protein kinase ABL1 (Homo sapiens), P00519 [M351T]
[6] = target: Tyrosine-protein kinase Tec (Homo sapiens) (UniProt P42680)
[7] = target: Receptor tyrosine-protein kinase erbB-4 (Homo sapiens) (UniProt Q15303)
[8] = test system: Phosphatidylinositol 4,5-bisphosphate 3-kinase catalytic subunit alpha isoform (Homo sapiens), P42336 [H1047L]
[9] = target: Serine/threonine-protein kinase PAK 6 (Homo sapiens) (UniProt Q9NQU5)
[10] = target: Serine/threonine-protein kinase 24 (Homo sapiens) (UniProt Q9Y6E0)
[11] = target: Serine/threonine-protein kinase LATS2 (Homo sapiens) (UniProt Q9NRM7)
[12] = target: Receptor-type tyrosine-protein kinase FLT3 (Homo sapiens) (UniProt P36888)
[13] = target: Protein kinase C epsilon type (Homo sapiens) (UniProt Q02156)
[14] = target: Tyrosine-protein kinase JAK1 (Homo sapiens) (UniProt P23458)
[15] = target: Cyclin-dependent kinase 11B (Homo sapiens) (UniProt P21127)
[16] = target: Phosphatidylinositol 3-kinase C2 domain-containing subunit gamma (Homo sapiens) (UniProt O75747)
[17] = target: Fibroblast growth factor receptor 2 (Homo sapiens) (UniProt P21802)
[18] = target: Mitogen-activated protein kinase kinase kinase 19 (Homo sapiens) (UniProt Q56UN5)
[19] = target: Serine/threonine-protein kinase TAO1 (Homo sapiens) (UniProt Q7L7X3)
[20] = target: Ephrin type-B receptor 4 (Homo sapiens) (UniProt P54760)
[21] = target: Dual specificity mitogen-activated protein kinase kinase 2 (Homo sapiens) (UniProt P36507)
[22] = target: Dual specificity tyrosine-phosphorylation-regulated kinase 1A (Homo sapiens) (UniProt Q13627)
[23] = test system: Phosphatidylinositol 4,5-bisphosphate 3-kinase catalytic subunit alpha isoform (Homo sapiens), P42336 [E542K]
[24] = target: Casein kinase I isoform epsilon (Homo sapiens) (UniProt P49674)
[25] = test system: Receptor-type tyrosine-protein kinase FLT3 (Homo sapiens), P36888 [R834Q]
[26] = target: Atypical kinase COQ8A, mitochondrial (Homo sapiens) (UniProt Q8NI60)
[27] = target: Serine/threonine-protein kinase Sgk3 (Homo sapiens) (UniProt Q96BR1)
[28] = target: Myosin light chain kinase 2, skeletal/cardiac muscle (Homo sapiens) (UniProt Q9H1R3)
[29] = target: Mitogen-activated protein kinase kinase kinase 10 (Homo sapiens) (UniProt Q02779)
[30] = target: Tyrosine-protein kinase Fyn (Homo sapiens) (UniProt P06241)
[31] = target: Dual specificity mitogen-activated protein kinase kinase 3 (Homo sapiens) (UniProt P46734)
[32] = target: Activin receptor type-1B (Homo sapiens) (UniProt P36896)
[33] = target: Tyrosine-protein kinase HCK (Homo sapiens) (UniProt P08631)
[34] = target: Cyclin-dependent kinase 4 (Homo sapiens) (UniProt P11802)
[35] = target: Non-receptor tyrosine-protein kinase TYK2 (Homo sapiens) (UniProt P29597)
[36] = test system: Hepatocyte growth factor receptor (Homo sapiens), P08581 [Y1235D]
[37] = target: Inhibitor of nuclear factor kappa-B kinase subunit epsilon (Homo sapiens) (UniProt Q14164)
[38] = target: Mitogen-activated protein kinase 9 (Homo sapiens) (UniProt P45984)
[39] = target: Tyrosine-protein kinase Lyn (Homo sapiens) (UniProt P07948)
[40] = target: SNF-related serine/threonine-protein kinase (Homo sapiens) (UniProt Q9NRH2)
[41] = test system: Tyrosine-protein kinase ABL1 (Homo sapiens), P00519 [F317I]
[42] = target: Cyclin-dependent kinase 16 (Homo sapiens) (UniProt Q00536)
[43] = target: Mitogen-activated protein kinase 10 (Homo sapiens) (UniProt P53779)
[44] = target: Casein kinase II subunit alpha' (Homo sapiens) (UniProt P19784)
[45] = target: Rho-associated protein kinase 2 (Homo sapiens) (UniProt O75116)

Measured: residual activity

Sequence of Atypical kinase COQ8A, mitochondrial (Homo sapiens) (Q8NI60 163-647 limits assumed): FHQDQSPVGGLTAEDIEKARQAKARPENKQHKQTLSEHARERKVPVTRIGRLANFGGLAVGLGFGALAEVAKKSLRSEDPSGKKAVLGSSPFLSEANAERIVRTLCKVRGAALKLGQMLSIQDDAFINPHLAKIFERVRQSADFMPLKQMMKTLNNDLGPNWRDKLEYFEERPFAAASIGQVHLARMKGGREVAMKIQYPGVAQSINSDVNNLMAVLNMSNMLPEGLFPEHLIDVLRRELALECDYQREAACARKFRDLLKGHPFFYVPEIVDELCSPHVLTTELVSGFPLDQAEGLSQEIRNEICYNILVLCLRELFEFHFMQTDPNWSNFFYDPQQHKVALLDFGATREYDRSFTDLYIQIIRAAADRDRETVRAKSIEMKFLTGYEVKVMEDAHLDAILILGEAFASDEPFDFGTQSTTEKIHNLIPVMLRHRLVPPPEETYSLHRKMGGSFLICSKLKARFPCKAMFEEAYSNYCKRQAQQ
Sequence of Tyrosine-protein kinase Tec (Homo sapiens) (P42680 whole entry): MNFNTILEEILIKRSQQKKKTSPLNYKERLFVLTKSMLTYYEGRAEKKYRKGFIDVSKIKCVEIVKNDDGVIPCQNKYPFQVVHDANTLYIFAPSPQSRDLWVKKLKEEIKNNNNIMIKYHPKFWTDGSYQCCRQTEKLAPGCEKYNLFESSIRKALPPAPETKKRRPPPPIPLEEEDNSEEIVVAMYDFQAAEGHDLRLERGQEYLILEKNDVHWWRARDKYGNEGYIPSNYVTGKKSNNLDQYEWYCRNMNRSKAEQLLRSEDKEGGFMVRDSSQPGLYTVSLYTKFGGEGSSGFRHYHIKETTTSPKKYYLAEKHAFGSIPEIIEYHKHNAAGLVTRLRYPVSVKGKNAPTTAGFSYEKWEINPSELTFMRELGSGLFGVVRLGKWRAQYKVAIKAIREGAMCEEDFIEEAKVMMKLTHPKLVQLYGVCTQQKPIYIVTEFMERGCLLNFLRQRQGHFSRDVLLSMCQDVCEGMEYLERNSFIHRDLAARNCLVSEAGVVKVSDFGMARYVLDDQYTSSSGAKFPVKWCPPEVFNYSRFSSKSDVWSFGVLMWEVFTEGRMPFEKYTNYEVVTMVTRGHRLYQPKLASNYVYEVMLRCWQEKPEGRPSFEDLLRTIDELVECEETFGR
Sequence of Mitogen-activated protein kinase 10 (Homo sapiens) (P53779 whole entry): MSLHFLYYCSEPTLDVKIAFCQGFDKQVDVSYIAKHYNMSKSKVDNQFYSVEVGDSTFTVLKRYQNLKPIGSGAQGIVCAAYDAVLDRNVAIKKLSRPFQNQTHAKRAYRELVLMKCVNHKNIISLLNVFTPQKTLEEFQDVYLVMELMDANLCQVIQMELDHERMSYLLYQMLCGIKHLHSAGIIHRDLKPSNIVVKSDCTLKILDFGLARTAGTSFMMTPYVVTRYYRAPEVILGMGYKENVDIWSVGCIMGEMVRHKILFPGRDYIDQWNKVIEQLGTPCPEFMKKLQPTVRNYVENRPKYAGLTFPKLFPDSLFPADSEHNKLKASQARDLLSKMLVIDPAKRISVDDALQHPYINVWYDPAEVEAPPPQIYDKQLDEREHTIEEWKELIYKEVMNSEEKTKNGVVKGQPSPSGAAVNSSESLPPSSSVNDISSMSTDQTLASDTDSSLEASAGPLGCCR
Sequence of Cyclin-dependent kinase 4 (Homo sapiens) (P11802 whole entry): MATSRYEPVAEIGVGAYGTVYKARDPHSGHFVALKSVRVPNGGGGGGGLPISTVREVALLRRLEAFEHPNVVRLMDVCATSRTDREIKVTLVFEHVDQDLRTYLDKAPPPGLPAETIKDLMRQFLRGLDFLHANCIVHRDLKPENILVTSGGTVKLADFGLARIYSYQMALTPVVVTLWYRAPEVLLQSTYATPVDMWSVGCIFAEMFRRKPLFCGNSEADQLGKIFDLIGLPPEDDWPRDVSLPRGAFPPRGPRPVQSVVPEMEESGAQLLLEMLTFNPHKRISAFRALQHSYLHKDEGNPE
Sequence of Tyrosine-protein kinase Fyn (Homo sapiens) (P06241 2-537 limits assumed): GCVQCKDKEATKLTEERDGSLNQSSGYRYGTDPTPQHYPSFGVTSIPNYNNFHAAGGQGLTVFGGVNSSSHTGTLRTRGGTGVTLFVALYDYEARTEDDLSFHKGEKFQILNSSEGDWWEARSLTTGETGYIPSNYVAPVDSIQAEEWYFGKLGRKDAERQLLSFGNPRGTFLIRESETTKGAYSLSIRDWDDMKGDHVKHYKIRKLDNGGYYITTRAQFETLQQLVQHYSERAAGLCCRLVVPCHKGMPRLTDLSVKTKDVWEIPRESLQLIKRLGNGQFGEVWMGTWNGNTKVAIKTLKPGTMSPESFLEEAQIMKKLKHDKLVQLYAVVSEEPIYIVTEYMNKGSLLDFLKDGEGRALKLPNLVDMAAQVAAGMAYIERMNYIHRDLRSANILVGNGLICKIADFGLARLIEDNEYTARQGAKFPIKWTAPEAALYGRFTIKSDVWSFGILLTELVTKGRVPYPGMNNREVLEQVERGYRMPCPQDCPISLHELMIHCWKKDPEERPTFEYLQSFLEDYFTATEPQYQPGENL
Sequence of Dual specificity mitogen-activated protein kinase kinase 3 (Homo sapiens) (P46734 whole entry): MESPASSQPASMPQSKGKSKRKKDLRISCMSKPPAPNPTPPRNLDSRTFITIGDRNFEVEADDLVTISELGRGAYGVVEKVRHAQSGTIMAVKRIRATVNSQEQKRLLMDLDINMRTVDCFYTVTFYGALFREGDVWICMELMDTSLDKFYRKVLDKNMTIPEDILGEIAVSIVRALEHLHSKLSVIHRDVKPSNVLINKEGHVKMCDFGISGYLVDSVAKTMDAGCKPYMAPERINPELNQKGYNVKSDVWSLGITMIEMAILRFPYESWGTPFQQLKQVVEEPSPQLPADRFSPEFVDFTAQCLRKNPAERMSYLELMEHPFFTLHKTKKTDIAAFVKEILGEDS
Sequence of Mitogen-activated protein kinase kinase kinase 19 (Homo sapiens) (Q56UN5 whole entry): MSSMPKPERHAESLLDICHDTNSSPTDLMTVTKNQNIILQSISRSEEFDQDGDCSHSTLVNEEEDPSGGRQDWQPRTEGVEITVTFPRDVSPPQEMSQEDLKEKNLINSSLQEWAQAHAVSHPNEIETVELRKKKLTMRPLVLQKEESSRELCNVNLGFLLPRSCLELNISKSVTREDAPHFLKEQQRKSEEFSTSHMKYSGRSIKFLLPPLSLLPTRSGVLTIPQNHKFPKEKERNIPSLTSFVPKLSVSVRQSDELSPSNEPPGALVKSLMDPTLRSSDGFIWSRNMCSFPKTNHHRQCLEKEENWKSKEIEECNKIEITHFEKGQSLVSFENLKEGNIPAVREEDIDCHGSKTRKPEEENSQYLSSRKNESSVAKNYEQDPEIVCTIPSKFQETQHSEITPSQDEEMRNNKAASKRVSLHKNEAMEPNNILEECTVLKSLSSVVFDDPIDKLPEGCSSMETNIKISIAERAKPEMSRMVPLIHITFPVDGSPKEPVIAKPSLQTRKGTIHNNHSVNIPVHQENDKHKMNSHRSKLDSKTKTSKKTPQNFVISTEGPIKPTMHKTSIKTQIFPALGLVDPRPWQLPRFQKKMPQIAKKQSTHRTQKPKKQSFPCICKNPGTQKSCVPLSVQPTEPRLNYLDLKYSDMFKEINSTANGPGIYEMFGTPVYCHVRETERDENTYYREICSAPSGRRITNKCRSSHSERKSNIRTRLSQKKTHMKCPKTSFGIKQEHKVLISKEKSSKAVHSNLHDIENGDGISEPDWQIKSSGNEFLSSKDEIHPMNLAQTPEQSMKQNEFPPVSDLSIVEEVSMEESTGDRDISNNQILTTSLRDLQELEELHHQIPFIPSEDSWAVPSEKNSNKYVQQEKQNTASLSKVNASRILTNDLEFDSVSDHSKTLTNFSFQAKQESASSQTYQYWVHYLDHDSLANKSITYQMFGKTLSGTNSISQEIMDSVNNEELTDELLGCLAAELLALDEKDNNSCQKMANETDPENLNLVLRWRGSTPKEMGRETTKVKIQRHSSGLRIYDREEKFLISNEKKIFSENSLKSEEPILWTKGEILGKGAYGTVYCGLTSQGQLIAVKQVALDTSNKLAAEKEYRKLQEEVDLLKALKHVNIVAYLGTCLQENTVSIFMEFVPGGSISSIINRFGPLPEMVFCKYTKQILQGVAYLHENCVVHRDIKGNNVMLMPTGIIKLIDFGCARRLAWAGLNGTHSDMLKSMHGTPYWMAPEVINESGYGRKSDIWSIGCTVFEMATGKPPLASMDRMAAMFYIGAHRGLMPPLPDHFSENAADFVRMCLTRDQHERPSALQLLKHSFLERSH
Sequence of Myosin light chain kinase 2, skeletal/cardiac muscle (Homo sapiens) (Q9H1R3 whole entry): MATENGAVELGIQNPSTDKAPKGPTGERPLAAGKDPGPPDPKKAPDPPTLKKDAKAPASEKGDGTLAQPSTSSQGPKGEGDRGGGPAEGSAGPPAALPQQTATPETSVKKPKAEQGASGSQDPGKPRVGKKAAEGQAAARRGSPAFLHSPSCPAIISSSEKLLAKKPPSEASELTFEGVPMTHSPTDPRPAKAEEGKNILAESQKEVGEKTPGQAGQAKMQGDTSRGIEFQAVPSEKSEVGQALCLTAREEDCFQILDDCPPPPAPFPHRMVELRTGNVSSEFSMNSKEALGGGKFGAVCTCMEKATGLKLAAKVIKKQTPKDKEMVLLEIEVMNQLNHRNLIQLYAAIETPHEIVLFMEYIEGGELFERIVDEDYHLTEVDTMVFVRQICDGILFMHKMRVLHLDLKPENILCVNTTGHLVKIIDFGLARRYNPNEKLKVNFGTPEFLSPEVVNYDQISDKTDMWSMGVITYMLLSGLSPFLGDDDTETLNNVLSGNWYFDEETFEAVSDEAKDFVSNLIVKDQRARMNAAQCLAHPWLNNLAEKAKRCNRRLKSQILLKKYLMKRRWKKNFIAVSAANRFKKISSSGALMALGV
Sequence of Cyclin-dependent kinase 3 (Homo sapiens) (Q00526 whole entry, looked up): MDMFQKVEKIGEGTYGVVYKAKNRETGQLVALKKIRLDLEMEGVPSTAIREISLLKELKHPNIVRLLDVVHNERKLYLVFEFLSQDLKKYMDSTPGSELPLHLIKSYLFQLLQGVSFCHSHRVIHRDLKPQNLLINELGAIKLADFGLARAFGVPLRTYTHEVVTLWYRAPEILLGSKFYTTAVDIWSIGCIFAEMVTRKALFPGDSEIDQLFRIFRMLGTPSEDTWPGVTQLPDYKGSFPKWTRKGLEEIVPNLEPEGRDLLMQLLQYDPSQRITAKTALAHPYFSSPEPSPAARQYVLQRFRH

CS(=O)(=O)N1CCCC(NC(=O)[C@H](CCC2CCCCC2)NC(=O)c2ccc(CNc3ncnc4c3nnn4-c3ccccc3)cc2)C1 (stereo not given in full) [SR-301]
inactive: [1] 97% | [2] 82% | [3] 85% | [4] 81% | [5] 100% | [6] 100% | [7] 61% | [8] 76% | [9] 100% | [10] 100% | [11] 100% | [12] 97% | [13] 63% | [14] 89% | [15] 100% | [16] 81% | [17] 97% | [18] 92% | [19] 100% | [20] 96% | [21] 90% | [22] 87% | [23] 64% | [24] 100% | [25] 94% | [26] 97% | [27] 83% | [28] 90% | [29] 73% | [30] 56% | [31] 85% | [32] 94% | [33] 100% | [34] 100% | [35] 100% | [36] 98% | [37] 73% | [38] 83% | [39] 96% | [40] 81% | [41] 88% | [42] 100% | [43] 100% | [44] 85% | [45] 100%

CS(=O)(=O)N1CCCC(NC(=O)[C@H](CCC2CCCCC2)NC(=O)c2ccc(CNC(=O)c3cnc4ccccn34)cc2)C1 (stereo not given in full) [SR-302]
inactive: [1] 100% | [2] 100% | [3] 85% | [4] 100% | [5] 100% | [6] 94% | [7] 95% | [8] 100% | [9] 100% | [10] 95% | [11] 76% | [12] 93% | [13] 83% | [14] 100% | [15] 94% | [16] 100% | [17] 100% | [18] 71% | [19] 88% | [20] 97% | [21] 100% | [22] 100% | [23] 78% | [24] 93% | [25] 100% | [26] 100% | [27] 74% | [28] 90% | [29] 100% | [30] 80% | [31] 100% | [32] 96% | [33] 100% | [34] 100% | [35] 86% | [36] 99% | [37] 100% | [38] 90% | [39] 100% | [40] 69% | [41] 80% | [42] 100% | [43] 85% | [44] 100% | [45] 100%
